In US20230248706A1, “METHODS AND COMPOSITIONS FOR THE TREATMENT OF COVID-19 AND ASSOCIATED RESPIRATORY DISTRESS AND MULTI-ORGAN FAILURE, SEPSIS, ACUTE RESPIRATORY DISTRESS SYNDROME, AND CARDIOVASCULAR DISEASES” (priority 2020, published 2023):

Assays:
[1] = system: HIF-response element; experiment: High-throughput screening of Prestwick library in stable cell line containing the HIF-response element; type: cell-based; details: Prestwick Chemical Library of FDA-approved drugs (1280 compounds)
[2] = system: LPS-challenged mice; experiment: EBA extravasation assay (lung vascular permeability) after LPS challenge; type: in vivo, mouse; details: for vascular repair (EBA flux): 72h post-LPS; for vascular repair (EBA assay): 96h post-LPS
Description: (§1) To induce endotoxemia, mice received a single dose of LPS (0.25-2.5 mg/kg BW, Escherichia coli 055:B5, Santa Cruz, St. Dallas, Tex.) by i.p. injection. The LPS dose was dependent on the aging of the mice (3-9 mo old, 2.5 mg/kg; 19-21 mo. old, 1.0 mg/kg; 25 mo. old, 0.25 mg/kg). All mice were anesthetized with ketamine/xylazine (100/5 mg/kg BW, i.p.) prior to tissue collection. For the survival study, mice were treated with a single dose of LPS (1.5 mg/kg, i.p.) and monitored for 7 days.
Vascular permeability assessment. The Evans blue dye-conjugated albumin (EBA) extravasation assay was performed as previously described (26, 34). Briefly, mice were retro-orbitally injected with EBA at a dose of 20 mg/kg BW at 30 minutes prior to tissue collection. Lungs were perfused free of blood with PBS, blotted dry and weighed. Next, lung tissues were homogenized in 1 ml PBS and incubated with 2 volumes of formamide at 60° C. for 18 hours. The homogenates were then centrifuged at 10,000×g for 30 minutes. The optical density of the supernatant was determined at 620 nm and 740 nm. The extravasated EBA in lung homogenate was presented as μg of Evans blue dye per g lung tissue.

[3] = system: LPS-challenged mice; experiment: Lung myeloperoxidase (MPO) activity after LPS challenge; type: in vivo, mouse
Description: as §1
Myeloperoxidase assay. Following perfusion free of blood, lung tissues were collected and homogenized in 50 mmol/L phosphate buffer. Homogenates were centrifuged at 15,000×g for 20 minutes at 4° C. The pellets were resuspended in phosphate buffer containing 0.5% hexadecyl trimethylammonium bromide and subjected to a cycle of freezing and thawing. Subsequently, the pellets were homogenized and the homogenates were centrifuged again. Absorbance was measured at 460 nm every 15 secs for 3 minutes and data expressed as ΔOD460/min/g lung tissue (26, 34).

[4] = system: FoxM1; experiment: Quantitative RT-PCR of FoxM1 expression in lung after LPS challenge; type: in vivo, mouse
Description: (§2) Molecular analysis. Total RNA was isolated using an RNeasy Mini kit including DNase I digestion (Qiagen, Valencia, Calif.). Following reverse transcription, quantitative RT-PCR analysis was performed using a sequence detection system (ABI ViiA 7 system; Life Technologies, Grand Island, N.Y.). The following primers sets were used for analysis: mouse FoxM1 primers, 5′-[…]-3′ (SEQ ID NO: 1) and 5′-[…]-3′ (SEQ ID NO: 2); mouse cyclophilin primers, 5′-[…]-3′ (SEQ ID NO: 3) and 5′-[…]-3′ (SEQ ID NO: 4). Primers for mouse Cdc25c, Ccna2, Ccnb1, Tnf, Il6, Nos2, and Icam1 were purchased from Qiagen. The mouse gene expression was normalized to cyclophilin.

[5] = system: pro-inflammatory genes; type: in vivo, mouse; details: aged mice (21 mo. old), 25 mg/kg oral at 24h post-LPS (FIG. 13 legend)
Description: as §2

[6] = system: TNF-α; experiment: Quantitative RT-PCR of TNF-α expression in lung after LPS challenge; type: in vivo, mouse; details: aged mice (21 mo. old), DMOG at 12 or 24h post-LPS, 72h post-LPS
Description: as §2

[7] = system: IL-6; experiment: Quantitative RT-PCR of IL-6 expression in lung after LPS challenge; type: in vivo, mouse
Description: as §2

[8] = cited from earlier work
[9] = system: HDAC; details: cited from earlier work
[10] = biological target: NADase; details: cited from earlier work
[11] = system: p53; details: in response to DNA damaging agents; cited from earlier work
[12] = system: Cdc25c, Ccna2, and Ccnb1; experiment: Quantitative RT-PCR of FoxM1 target genes essential for cell cycle progression in lung; type: in vivo, mouse; details: aged mice, treated at 24 and 48h post-LPS
Description: as §2

[13] = system: pulmonary vascular ECs; experiment: In vivo BrdU labeling of lung endothelial cell proliferation; set-up: species or system mouse; details: aged mice, treated at 24 and 48h post-LPS
Description: Cell proliferation. At 8 h prior to tissue collection, BrdU (Sigma-Aldrich, St Louis, Mo.) was injected i.p. into mice at 50 mg/kg BW. Mouse lung cryosections were stained overnight with anti-BrdU (1:3, BD Biosciences, San Jose, Calif.) and incubated with Alexa Fluo 488-conjugated secondary antibody (1:200, Life Technologies, Grand Island, N.Y.). Lung vascular ECs were immunostained with anti-vWF (1:300, Sigma-Aldrich, St Louis, Mo.) and anti-CD31 (1:100, BD Biosciences, San Jose, Calif.) antibodies at 4° C. then the sections were incubated with Alexa Fluor 594-conjugated secondary antibodies (1:200, Life Technologies, Grand Island, N.Y.). The nuclei were counterstained with DAPI (Life Technologies, Grand Island, N.Y.). Three consecutive cryosections from each mouse lung were examined, the average number of BrdU+ nuclei was used (24, 34).

[14] = system: LPS-challenged mice; experiment: Survival after LPS challenge; type: in vivo, mouse; details: LPS 1.5 mg/kg i.p., treated at 24 and 48h post-LPS
Description: To induce endotoxemia, mice received a single dose of LPS (0.25-2.5 mg/kg BW, Escherichia coli 055:B5, Santa Cruz, St. Dallas, Tex.) by i.p. injection. […] All mice were anesthetized with ketamine/xylazine (100/5 mg/kg BW, i.p.) prior to tissue collection. […]

[15] = system: young adult mice; details: 1 mg/kg i.p., young adult mice (8-10 weeks old), previous study; cited from earlier work
[16] = system: human lung microvascular ECs (HLMVECs); experiment: Apoptosis (TUNEL) in senescent HLMVECs treated with TNF-α/CHX; details: senescent HLMVECs at passage 16
Description: (§3) (D) Quantification of ROS production. (E) Representative micrographs of TUNEL staining (green) of human lung ECs.
(§4) To further understand the pathogenic role of aging-induced NOX2 in promoting inflammatory lung injury in aged mice, we cultured human lung microvascular ECs (HLMVECs) and passaged many times.

[17] = system: human lung microvascular ECs (HLMVECs); experiment: ROS production (DCF staining) in senescent HLMVECs treated with TNF-α/CHX; details: senescent HLMVECs at passage 16, TNF-α and Cycloheximide (CHX) treatment
Description: as §3, §4

[18] = aged mice (21 mo. old), LPS 0.5 mg/kg i.p., 25 mg/kg oral at 24h post-LPS, 72h post-LPS
[19] = aged mice (21 mo. old), DMOG 8 mg/mouse i.p. at 12 or 24h post-LPS, 72h post-LPS
[20] = aged WT mice (20 months), 7 mg/kg i.p. at 1 h prior to LPS, 72h post-LPS
[21] = young adult mice (3-5 mo. old), LPS 2.5 mg/kg i.p., 0.25, 0.5, and 5 mg/kg i.p. at 4h post-LPS, 24h post-LPS
[22] = aged mice (21.5 mos. old), LPS 2 mg/kg i.p., 120 mg/kg oral at 2 h post-LPS, 24h post-LPS

Structure (SMILES): COCCCOc1ccnc(C[S+]([O-])c2nc3ccccc3[nH]2)c1C (centres unmarked) [Rabeprazole]
- HIF activation in library screen [1]: activators
- drug-induced vascular repair (EBA) in Foxm1 EC KO mice ([2]; Foxm1 EC-specific knockout mice (3-5 mos. old), treated at 6h and 24h post-LPS, 52h post-LPS): inhibited
- drug-induced vascular repair (EBA) in Hif1a KO mice ([2]; Hif1a EC-specific knockout mice (4 mos. old), treated at 6h and 24h post-LPS, 52h post-LPS): inhibited
- MPO activity ([3]; aged mice (22 mo. old), LPS 1.5 mg/kg i.p., treated at 6h and 24h post-LPS, 72h post-LPS): returned to levels seen in basal mice
- increase of FoxM1 expression compared to either basal or LPS-treated mice ([4]; aged mice (22 mo. old), treated at 6h and 24h post-LPS, 72h post-LPS): 3-6 fold
- increase of FoxM1 expression compared to either basal or LPS-treated mice ([4]; young adult mice 3-5 mos. old, 18 mg/kg oral at 6h and 24h post-LPS, 56h post-LPS): 3 fold

Structure (SMILES): Cc1nc(C(=O)NCC(=O)O)c(O)c2ccc(Oc3ccccc3)cc12 [FG-4592]
- vascular repair (EBA flux) ([2]; aged mice (21 mo. old), LPS 0.5 mg/kg i.p., 25 mg/kg oral at 24h post-LPS): normalized vascular repair
- MPO activity [3, 18]: inhibited MPO activity
- FoxM1 expression [4, 18]: induced FoxM1 expression
- pro-inflammatory cytokine expression [5]: marked increase

Structure (SMILES): COC(=O)CNC(=O)C(=O)OC [DMOG, dimethyoxalylglycine]
- MPO activity [3, 19]: returned to basal levels
- increase of FoxM1 expression compared to either basal or non-treated mice [4, 19]: 3 fold
- expression of TNF-α [6]: markedly reduced
- expression of IL-6 ([7]; aged mice (21 mo. old), DMOG at 12 or 24h post-LPS, 72h post-LPS): markedly reduced

Structure (SMILES): Oc1ccc(/C=C/c2cc(O)cc(O)c2)cc1 [Resveratrol, trans-E-resveratrol]
- solubility [8]: poor solubility

Structure (SMILES): NC(=O)C1CCCc2c1[nH]c1ccc(Cl)cc21 (centres unmarked) [Selisistat]
- lung MPO activity [3, 20]: returned to basal levels
- FoxM1 expression [4, 20]: reactivated FoxM1 expression
- IC50 [9]: > 100 µM
- IC50 [10]: > 100 µM
- p53 acetylation [11]: Enhances

Structure (SMILES): Nc1ncn([C@H]2CC(O)[C@@H](CO)O2)c(=O)n1 (stereo in doubt) [Decitabine, 5-Aza-2′-deoxycytidine]
- vascular repair (EBA assay) ([2]; aged mice (21-22 mos. old), 0.2 mg/kg i.p. at 24 h and 48h post-LPS): normalized vascular repair
- lung EBA flux [2, 21]: no effect
- vascular repair (EBA assay) ([2]; young adult mice (3 mos. old), 0.2 mg/kg i.p. at 24 and 48h post-LPS): didn't promote
- lung MPO activity ([3]; aged mice (21-22 mos. old), 0.2 mg/kg i.p. at 24 h and 48h post-LPS, 96h post-LPS): returned to basal levels
- lung MPO activity [3, 21]: no effect
- inflammation resolution (MPO assay) ([3]; young adult mice (3 mos. old), 0.2 mg/kg i.p. at 24 and 48h post-LPS, 96h post-LPS): didn't promote
- FoxM1 expression ([4]; aged mice, treated at 24 and 48h post-LPS, 72h post-LPS, compared to vehicle-treated mice): markedly induced
- expression of FoxM1 target genes essential for cell cycle progression [12]: markedly induced
- pulmonary vascular EC proliferation (BrdU immunostaining) [13]: drastically increased
- mice survived ([14]; aged (20-22 mos. old) WT mice, monitored for 96h): 80%
- survival of aged Foxm1 KO mice ([14]; aged Foxm1 EC-specific knockout mice): no protective effects
- effect on sepsis-induced inflammatory lung injury [15]: no effects

Structure (SMILES): CC(=O)N[C@@H](CS)C(=O)O [NAC, N-Acetylcysteine]
- MPO activity [3, 22]: attenuated
- expression of the proinflammatory gene 116 [7, 22]: reduced to a level similar to young adult mice
- TNF-α/CHX treatment-induced cell apoptosis [16]: markedly inhibited
- ROS generation [17]: inhibited

Structure (SMILES): Cl.Nc1ccc(/N=N/c2ccccc2)c(N)n1 [Phenazopyridine]
- HIF activation in library screen [1]: activators
- vascular repair (EBA flux) ([2]; aged mice (22 mo. old), LPS 1.5 mg/kg i.p., treated at 6h and 24h post-LPS): promote vascular repair
